According to patent US7067261B2 (priority 2001, dated 2006):

Legend:
[1] = system: poly-(ADP-ribose)polymerase (PARP); format: cell-based, rat
PC12 cells = format: cell-based, rat
JAK2 = format: cell-based
caspase 3 = format: cell-based, rat
[2] = target: complex formation between Aβ(1–42) and α7-nAChR (Rattus norvegicus, UniProt Q05941); format: cell-based
Akt = format: cell-based, rat
PI-3 kinase = format: cell-based, rat
[3] = system: Reserpine-Induced Dopamine Depletion—Mice; settings: mouse, in vivo; cited from earlier work
α4β2 = α4β2 (Homo sapiens, UniProt P17787+P43681); format: cell-based
Sequence of α4β2 (P43681 29-627): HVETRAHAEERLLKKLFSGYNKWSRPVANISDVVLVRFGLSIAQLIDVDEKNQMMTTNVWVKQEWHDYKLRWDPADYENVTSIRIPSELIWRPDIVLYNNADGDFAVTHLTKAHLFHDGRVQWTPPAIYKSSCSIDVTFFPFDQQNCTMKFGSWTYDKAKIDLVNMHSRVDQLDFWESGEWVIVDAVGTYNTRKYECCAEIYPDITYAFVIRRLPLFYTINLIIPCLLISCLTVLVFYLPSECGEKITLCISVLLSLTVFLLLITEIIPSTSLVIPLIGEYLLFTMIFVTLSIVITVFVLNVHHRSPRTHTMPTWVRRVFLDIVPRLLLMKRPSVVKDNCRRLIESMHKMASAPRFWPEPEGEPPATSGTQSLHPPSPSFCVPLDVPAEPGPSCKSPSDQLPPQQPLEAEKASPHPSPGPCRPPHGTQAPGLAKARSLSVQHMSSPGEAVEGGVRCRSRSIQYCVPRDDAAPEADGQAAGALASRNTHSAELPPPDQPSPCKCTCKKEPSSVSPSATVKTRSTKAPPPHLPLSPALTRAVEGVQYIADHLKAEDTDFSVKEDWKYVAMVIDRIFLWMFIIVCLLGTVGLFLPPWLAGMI
Sequence of α4β2 (P17787 26-502): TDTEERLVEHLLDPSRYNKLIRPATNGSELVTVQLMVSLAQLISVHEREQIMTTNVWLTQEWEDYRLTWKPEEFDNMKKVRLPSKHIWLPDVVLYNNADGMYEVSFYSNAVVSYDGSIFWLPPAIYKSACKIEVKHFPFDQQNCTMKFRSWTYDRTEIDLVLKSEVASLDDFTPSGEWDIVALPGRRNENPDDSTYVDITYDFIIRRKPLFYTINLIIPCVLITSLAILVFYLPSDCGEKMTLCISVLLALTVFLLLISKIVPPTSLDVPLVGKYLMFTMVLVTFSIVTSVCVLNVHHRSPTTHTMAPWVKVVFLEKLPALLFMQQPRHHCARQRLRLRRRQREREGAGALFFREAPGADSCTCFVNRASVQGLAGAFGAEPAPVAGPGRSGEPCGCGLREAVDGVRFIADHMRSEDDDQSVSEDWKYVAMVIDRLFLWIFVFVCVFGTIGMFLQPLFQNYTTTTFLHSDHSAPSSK

α7 nAChR = α7 nAChR (Homo sapiens, UniProt P36544); format: cell-based
α3β2 = α3β2 (Homo sapiens, UniProt P17787+P32297); format: cell-based
muscle subtype α1β1γδ = muscle subtype α1β1γδ (Homo sapiens, UniProt P02708+P07510+Q07001); format: cell-based
Sequence of muscle subtype α1β1γδ (P07510 23-517): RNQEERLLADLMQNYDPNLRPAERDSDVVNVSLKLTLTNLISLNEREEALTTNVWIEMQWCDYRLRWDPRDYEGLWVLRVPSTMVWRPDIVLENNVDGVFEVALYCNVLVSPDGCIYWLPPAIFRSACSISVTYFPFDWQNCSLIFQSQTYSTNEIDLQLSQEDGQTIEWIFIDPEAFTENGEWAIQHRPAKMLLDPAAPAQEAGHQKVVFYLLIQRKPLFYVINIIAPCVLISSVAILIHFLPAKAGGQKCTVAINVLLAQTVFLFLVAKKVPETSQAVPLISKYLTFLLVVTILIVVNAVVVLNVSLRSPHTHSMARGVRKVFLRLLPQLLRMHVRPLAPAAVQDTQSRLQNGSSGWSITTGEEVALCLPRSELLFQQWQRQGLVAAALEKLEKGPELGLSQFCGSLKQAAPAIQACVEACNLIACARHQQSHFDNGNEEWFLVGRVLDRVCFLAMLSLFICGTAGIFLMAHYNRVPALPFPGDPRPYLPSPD
Sequence of muscle subtype α1β1γδ (Q07001 22-517): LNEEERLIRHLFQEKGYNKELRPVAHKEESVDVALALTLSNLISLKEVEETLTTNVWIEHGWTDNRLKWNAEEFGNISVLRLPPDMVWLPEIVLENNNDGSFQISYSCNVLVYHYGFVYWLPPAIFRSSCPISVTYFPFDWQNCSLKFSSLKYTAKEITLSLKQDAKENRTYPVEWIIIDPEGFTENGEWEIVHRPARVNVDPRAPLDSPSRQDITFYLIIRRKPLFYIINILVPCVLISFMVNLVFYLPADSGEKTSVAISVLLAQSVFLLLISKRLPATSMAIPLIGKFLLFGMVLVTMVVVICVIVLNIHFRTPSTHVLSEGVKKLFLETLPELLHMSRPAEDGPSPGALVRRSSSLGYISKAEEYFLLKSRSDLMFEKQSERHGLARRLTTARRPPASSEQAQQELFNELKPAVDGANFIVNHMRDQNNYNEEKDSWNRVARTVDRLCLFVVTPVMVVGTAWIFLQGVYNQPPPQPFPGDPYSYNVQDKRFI
Sequence of muscle subtype α1β1γδ (P02708 21-457): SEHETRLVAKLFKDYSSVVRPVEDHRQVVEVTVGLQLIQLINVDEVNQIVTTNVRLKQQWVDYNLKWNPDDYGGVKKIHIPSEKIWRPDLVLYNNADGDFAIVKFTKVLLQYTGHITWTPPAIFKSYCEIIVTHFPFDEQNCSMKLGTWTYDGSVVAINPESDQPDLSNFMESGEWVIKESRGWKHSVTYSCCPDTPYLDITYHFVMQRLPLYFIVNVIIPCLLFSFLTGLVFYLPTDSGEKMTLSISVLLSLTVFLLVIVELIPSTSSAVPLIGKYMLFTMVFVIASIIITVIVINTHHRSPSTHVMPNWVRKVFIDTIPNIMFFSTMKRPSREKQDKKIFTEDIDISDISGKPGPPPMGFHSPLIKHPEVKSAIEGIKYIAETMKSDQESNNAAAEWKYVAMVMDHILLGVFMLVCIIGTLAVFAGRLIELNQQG
Sequence of muscle subtype α1β1γδ (P11230 24-501, further chain): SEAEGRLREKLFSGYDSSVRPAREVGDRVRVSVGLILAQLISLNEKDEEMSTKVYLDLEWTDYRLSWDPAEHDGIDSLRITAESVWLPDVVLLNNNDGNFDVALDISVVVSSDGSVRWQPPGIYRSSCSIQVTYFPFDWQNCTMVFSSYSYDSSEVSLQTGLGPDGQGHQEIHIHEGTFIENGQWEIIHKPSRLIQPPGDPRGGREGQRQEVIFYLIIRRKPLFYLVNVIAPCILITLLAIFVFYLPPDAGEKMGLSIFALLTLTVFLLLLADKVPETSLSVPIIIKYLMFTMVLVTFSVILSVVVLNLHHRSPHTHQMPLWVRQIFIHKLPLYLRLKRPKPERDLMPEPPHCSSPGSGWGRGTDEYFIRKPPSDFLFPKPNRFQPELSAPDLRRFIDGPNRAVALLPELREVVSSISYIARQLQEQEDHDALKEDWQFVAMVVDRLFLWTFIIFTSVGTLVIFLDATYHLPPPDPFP

ganglionic subtype α3β4 = ganglionic subtype α3β4 (Homo sapiens, UniProt P30926+P32297); format: cell-based
α7 = α7 (Homo sapiens, UniProt P36544); test: biochemical; format: binding
[4] = system: 6-OHDA (Partial Lesion)—Rats; settings: rat, in vivo, sc, 1 mg/kg; cited from earlier work
[5] = target: JAK2 complex formation with the α7 receptor (Rattus norvegicus, UniProt Q05941)
Sequence of JAK2 complex formation with the α7 receptor (Q05941 23-502): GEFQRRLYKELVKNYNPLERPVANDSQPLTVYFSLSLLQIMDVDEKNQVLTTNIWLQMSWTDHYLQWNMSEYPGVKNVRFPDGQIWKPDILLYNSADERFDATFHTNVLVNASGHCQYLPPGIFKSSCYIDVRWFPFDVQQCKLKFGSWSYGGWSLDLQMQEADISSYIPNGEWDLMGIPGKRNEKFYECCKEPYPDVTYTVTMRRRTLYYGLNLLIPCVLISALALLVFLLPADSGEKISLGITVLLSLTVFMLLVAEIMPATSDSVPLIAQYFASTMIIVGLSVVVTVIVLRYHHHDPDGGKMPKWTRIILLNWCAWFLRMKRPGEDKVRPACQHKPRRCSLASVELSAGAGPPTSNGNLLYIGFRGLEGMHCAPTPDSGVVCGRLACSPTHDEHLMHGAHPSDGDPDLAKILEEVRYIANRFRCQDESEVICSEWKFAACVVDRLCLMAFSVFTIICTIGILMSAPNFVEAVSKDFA
Sequence of JAK2 complex formation with the α7 receptor (Q62689 whole entry, further chain): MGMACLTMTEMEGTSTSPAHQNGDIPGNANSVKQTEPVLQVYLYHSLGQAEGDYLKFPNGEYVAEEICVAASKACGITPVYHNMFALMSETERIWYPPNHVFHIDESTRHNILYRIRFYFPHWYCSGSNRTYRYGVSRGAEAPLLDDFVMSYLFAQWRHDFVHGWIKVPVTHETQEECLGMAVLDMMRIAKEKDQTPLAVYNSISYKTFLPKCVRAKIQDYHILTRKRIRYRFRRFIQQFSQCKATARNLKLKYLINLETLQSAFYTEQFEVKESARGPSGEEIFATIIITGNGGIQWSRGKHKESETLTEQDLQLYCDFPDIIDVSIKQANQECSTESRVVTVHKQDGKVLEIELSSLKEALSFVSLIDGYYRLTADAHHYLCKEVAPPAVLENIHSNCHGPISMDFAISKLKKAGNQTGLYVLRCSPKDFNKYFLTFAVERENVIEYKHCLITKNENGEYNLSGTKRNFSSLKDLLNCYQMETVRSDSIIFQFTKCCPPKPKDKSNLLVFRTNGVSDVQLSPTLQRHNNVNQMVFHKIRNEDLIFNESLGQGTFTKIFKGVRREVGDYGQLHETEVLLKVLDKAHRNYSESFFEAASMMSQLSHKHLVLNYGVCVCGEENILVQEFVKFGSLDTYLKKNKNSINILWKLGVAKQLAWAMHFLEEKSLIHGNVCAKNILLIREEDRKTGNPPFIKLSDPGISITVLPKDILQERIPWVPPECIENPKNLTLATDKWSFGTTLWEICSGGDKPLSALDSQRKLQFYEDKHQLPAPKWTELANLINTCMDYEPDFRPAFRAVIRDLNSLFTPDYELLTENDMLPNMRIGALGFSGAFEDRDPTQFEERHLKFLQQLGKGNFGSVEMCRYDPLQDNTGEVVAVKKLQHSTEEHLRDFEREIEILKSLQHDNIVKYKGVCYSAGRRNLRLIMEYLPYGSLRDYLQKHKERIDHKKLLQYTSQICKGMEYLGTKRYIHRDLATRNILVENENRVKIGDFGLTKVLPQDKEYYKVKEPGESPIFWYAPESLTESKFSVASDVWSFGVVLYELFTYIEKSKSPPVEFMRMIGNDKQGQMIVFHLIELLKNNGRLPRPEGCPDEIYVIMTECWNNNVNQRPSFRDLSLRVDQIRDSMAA

MPTP effects, Mice = settings: mouse, in vivo; cited from earlier work
[6] = system: methamphetamine toxicity in mice; settings: mouse, in vivo; cited from earlier work

Sequence of complex formation between Aβ(1–42) and α7-nAChR (Q05941 23-502, one chain of several): as the sequence (Q05941 23-502) above

In the case of “Ang II (DRVYIHPF; Angiotensin-2; UniProt P01019 25-32, looked up)”, the “PARP cleavage / induction” value [1] is reported as “nicotine-insensitive PARP induction”, the PC12 cell number (PC12 cells) is reported as “significantly reduced” and the “effect on nicotine-induced neuroprotection (cell viability)” value (PC12 cells) is reported as “complete reversal”. The “effect of preincubation on nicotine-induced tyrosine phosphorylation of JAK2” value (JAK2) was “blocks”.

For `N#C/C(=C/c1ccc(O)c(O)c1)C(=O)NCc1ccccc1` [AG-490], the “effect on nicotine inhibition of Aβ(1–42)-induced caspase 3 activation” value (caspase 3) was “prevented”, the “effect on co-immunoprecipitation (complex formation) of Aβ(1–42) and α7-nAChR” value [2] was “prevented” and the “effect on TC-1698-induced activation of Akt” value (Akt) was “suppression of activation”. For the same compound, the “effect on nicotine-induced serine phosphorylation of Akt” value (Akt) was “inhibits”, the “effect on TC-1698-induced activation of JAK2” value (JAK2) was “suppression of activation” and the “effect on basal and nicotine-stimulated JAK2 tyrosine phosphorylation” value (JAK2) was “inhibits”. The “effect on TC-1698-induced activation of PI-3 Kinase” value (PI-3 kinase) was “suppression of activation” and the “effect on nicotine-induced tyrosine phosphorylation of PI-3K” value (PI-3 kinase) was “inhibits”.

In the case of `C[N+](C)(C)CCCCCC[N+](C)(C)C` [hexamethonium], the “effect on NIC blockade of reserpine-induced dopamine depletion” value [3] is given as “not”.

In the case of Aβ(1–42), the “caspase 3 activity” value (caspase 3) is reported as “significant increase”, the “PARP cleavage / induction” value [1] is reported as “cleaved” and the PC12 cell number (PC12 cells) is reported as “significant decrease”.

For `c1cncc(C2CCC3CCN2CC3)c1` (stereo not shown) [TC-1698, 2-Pyridin-3-yl-1-aza-bicyclo[3.2.2]nonane], the “activation of neuronal subtype α4β2” value (α4β2) was “does not activate”, the “activation of Akt” value (Akt) was “activation” and the “potency in activating α7 nAChR relative to acetylcholine” value (α7 nAChR) was 50 fold. For the same compound, the “activation of neuronal subtype α3β2” value (α3β2) was “does not activate”, the “phosphorylation of Jak-2” value (JAK2) was “induces phosphorylation of Jak-2” and the “activation of PI-3 Kinase” value (PI-3 kinase) was “activation”. The “activation of muscle subtype α1β1γδ” value (muscle subtype α1β1γδ) was “does not activate”, the “activation of ganglionic subtype α3β4” value (ganglionic subtype α3β4) was “does not activate” and the Ki (α7) was 0.8 nM.

For `CNC1(C)C2CCC(C2)C1(C)C` (stereo not shown) [mecamylamine], the “effect on NIC blockade of reserpine-induced dopamine depletion” value [3] is listed as “blocked”.

For `CN1CCCC1c1cccnc1` (stereo not shown) [nicotine], the “effect on Aβ(1–42)-induced activation of caspase 3” value (caspase 3; PC12 cells, nicotine 10 μM, Aβ(1–42) 100 nM, P<0.01) is listed as “blocked”, the “effect on co-immunoprecipitation (complex formation) of Aβ(1–42) and α7-nAChR” value [2] is listed as “blocked” and the “dopaminergic neurotoxicity (loss of striatal dopamine) induced by 6-OHDA” value [4] is listed as “attenuates”. For the same compound, the “time to association of JAK2 with the α7 receptor” value [5] was ≤ 5 min, the reserpine-induced dopamine depletion [3] was “blocked” and the “effect on Ang II-induced apoptosis (cell number)” value (PC12 cells; PC12 cells, Ang II 100 nM, 8 hours) was “not affected”. For the same compound, the “effect on Aβ(1–42)-induced cell death when co-incubated with AG-490” value (PC12 cells; PC12 cells, Aβ(1–42) 100 nM, 8 hours) was “no effect”, the “effect on cell death induced by Aβ(1–42)” value (PC12 cells; PC12 cells, Aβ(1–42) 100 nM, 8 hours, P<0.01) was “significantly reduced” and the “time to JAK2 tyrosine phosphorylation” value (JAK2) was 5 to 10 min. The “striatal MPP+ levels induced by MPTP” value (MPTP effects, Mice) was “reduces” and the “methamphetamine toxicity (brain levels)” value [6] was “prevents”.
